# Experiment: gradient 5% acetonitrile 3 min, to 50% in 2 min, to 85% in 15 min, held 3 min, 100 µL/min
# Conditions: column: Zorbax Extend-C18 2.1 x 50 mm; eluents: water / acetonitrile, 0.1% formic acid
# In short: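 Values are retention times taken from adduct peaks that software picked and an analyst inspected. The pure standards were run as mixtures of ~100 molecules on HPLC linked to a quadrupole time-of-flight mass spectrometer, in positive and negative ionization mode. A Zorbax Extend-C18 column (2.1 × 50 mm, 1.8 μm) was used at 100 μL/min with water and acetonitrile, each including 0.1% formic acid.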
row,RP-LC retention time [s],Compound
1,826,CCOC(=O)c1c(S(=O)(=O)N2CCC(C(=O)NCCc3ccccc3)CC2)c(C)n(C)c1C
2,1070,CCOC(=O)c1nc(N2CCN(c3cccc(C(F)(F)F)c3)CC2)c2ccccc2n1
3,724,Cc1cccc(-c2ncccc2CNS(=O)(=O)c2ccc(F)cc2)c1
4,1220,CCn1c(C(=O)N2CCN(c3ccc(F)cc3)CC2)cc2c(-c3cccs3)nn(-c3ccccc3)c21
5,829,CCOC(=O)c1cccc(NC(=O)Cn2ccc3ccc(-c4nnc(C)o4)cc32)c1
6,817,Cc1ccc2c(c1)cc(S(=O)(=O)c1ccccc1)c(=O)n2CC(=O)N1CCCC1
7,553,CN(CCc1ccccn1)C(=O)C1CCN(c2cnn(C)c(=O)c2)CC1
8,734,COc1ccc(C(=O)N2CCC3(CC2)NC(=O)c2cc(F)ccc2N3C)c(OC)c1
9,608,O=C(Nc1ccccc1)C1CCc2nc(N3CCN(C(=O)C4CCC4)CC3)sc2C1 (stereo not drawn)
10,827,COc1cc(NC(=O)Cc2ccc(S(=O)(=O)C(C)C)cc2)c2ncccc2c1
11,720,Cc1ccc(NC(=O)NCC(c2cccnc2)c2cn(C)c3ccccc23)c(C)c1 (stereo not drawn)
12,724,COc1ccc(Cl)cc1NS(=O)(=O)c1cc2n(c1)CCCN(C)C2=O
13,824,N#Cc1ccc(N2C=C(C(=O)N3CCCCC3)S(=O)(=O)c3ccc(F)cc32)cc1
14,845,O=C1COc2ccc(S(=O)(=O)N3CCCC3C(=O)Nc3ccc(F)c(Cl)c3)cc2N1 (stereo not drawn)
15,708,Cc1ccn2cc(C(=O)NCc3ccccc3C)nc2c1
16,877,COc1ccc(NC(=O)CSc2cc(N3CCN(c4ccccc4OC)CC3)ncn2)cc1
17,859,Cc1nc(OCC(=O)Nc2ccc(Cl)c(Cl)c2)c2ccccc2n1
18,566,Fc1ccc(Cl)cc1CN1CC(COc2cccnc2)C2(CCOCC2)C1 (stereo not drawn)
19,650,Cn1c(CC2CCN(S(=O)(=O)Cc3ccc(F)cc3Cl)C2)nc2cccnc21 (stereo not drawn)
20,835,COc1ccc(-c2noc(-c3nn(-c4ccc(F)c(F)c4)ccc3=O)n2)cc1OC
21,674,CCCNC(=O)C1CCCN(c2ccc(SCC(=O)Nc3cccc(C)c3)nn2)C1 (stereo not drawn)
22,665,COc1ccc(OC)c(NC(=O)CCc2c(-c3ccc(F)cc3)nc3ccccn23)c1
23,794,Cc1ccnc(NC(=O)C2CCN(S(=O)(=O)c3ccc4c(c3)sc(=O)n4C(C)C)CC2)c1
24,885,O=c1n(Cc2c(F)cccc2Cl)nc2ccc(S(=O)(=O)N3CCCC3)cn12
25,677,CCc1cccc(Nc2c(C(=O)N3CCCCC3C)cnc3nc(C)ccc23)c1 (stereo not drawn)
26,1340,Cc1ccc(C2CC(=O)c3cnc(N4CCN(c5ccccc5)CC4)nc3C2)cc1 (stereo not drawn)

row,RP-LC retention time [s],Compound
1,901,CCOc1ccc(S(=O)(=O)N2CCC(C(=O)NCCc3ccc(OC)c(OC)c3)CC2)cc1C
2,740,CCn1c(SC)nnc1-c1nn(C)c2c1CN(C(=O)c1ccccc1)CC2
3,755,O=C(c1[nH]nc2c1CCc1ccccc1-2)N1CCC(c2noc(-c3ccncc3)n2)C1 (stereo not drawn)
4,689,O=C(c1ccc(F)cc1)N1CCC(n2c(-c3ccco3)nc3cccnc32)C1 (stereo not drawn)
5,1280,CCCOc1nc2ccccc2nc1N1CCCC(C(=O)Nc2ccc(OC)cc2OC)C1 (stereo not drawn)
6,754,Cc1cccc(N2CCN(C(=O)COc3ccc(NC(=O)C4CC4)cn3)CC2)c1
7,865,Cc1ccc(-n2c(=O)n(CC(=O)Nc3ccccc3C)c3cccnc32)cc1
8,803,Cc1noc(C)c1CCNC(=O)CCCn1c(=O)c2cccn2c2ccc(Br)cc21
9,671,O=C(NC1CC1)C1CCN(c2ccc(=O)n(-c3ccc(F)cc3)n2)CC1
10,982,Cc1ccc(NC(=O)Cn2cnc3c(sc4nc(-c5ccccc5)ccc43)c2=O)c(F)c1
11,638,Cc1ccc(-c2nc(CN3CCCC(C(=O)NC4CCCCNC4=O)C3)no2)cc1 (stereo not drawn)
12,599,O=C(CN1CCN(Cc2ccccc2)C1=O)NC1CCN(Cc2ccccc2)CC1
13,953,O=C(CN1CCc2[nH]c3c(F)ccc(F)c3c(=O)c2C1)Nc1ccccc1Cl
14,794,Cc1cc(C2CCCN2C(=O)Nc2cc(Cl)ccc2C)on1 (stereo not drawn)
15,650,CNC(=O)C1CCCN(c2nc3ncn(CC(=O)Nc4ccc(F)cc4Cl)c(=O)c3s2)C1 (stereo not drawn)
16,753,COc1cc(N2C=C(C(=O)N3CCCC3)S(=O)(=O)c3ccccc32)cc(OC)c1OC
17,873,O=C(C1=CN(c2ccc3c(c2)OCCO3)c2cc(Cl)ccc2S1(=O)=O)N1CCCCC1
18,832,COCCNC(=O)C1CCN(c2nc3ccc(-c4ccccc4)nc3s2)CC1
19,780,Cc1cccc(Nc2c(-c3ccc(C(=O)O)cc3)nc3cnccn23)c1C
20,1020,Cc1ccc(-n2ccc(=O)c(-c3nc(-c4ccccc4Br)no3)n2)cc1C
21,679,c1ccc(-c2nc(-c3ccncc3)no2)c(OC2CCN(Cc3ccsc3)C2)c1 (stereo not drawn)
22,999,C=Cc1ccc(Cn2nc3c(S(=O)(=O)N4CCCCCC4)cccn3c2=O)cc1
23,807,CC(C)n1cnc(S(=O)(=O)N2CCC(C(=O)N3CCN(c4ccccc4F)CC3)CC2)c1
24,708,CCCNC(=O)C1CC(=O)N(CCc2c[nH]c3ccc(Cl)cc23)C1 (stereo not drawn)
25,915,Cc1ccc(CNC(=O)Cc2nnc(-c3ccc4ncccc4c3)o2)cc1C
26,709,CC(C)NC(=O)C1CCCN(c2nc3ncn(CC(=O)Nc4ccc5c(c4)CCC5)c(=O)c3s2)C1 (stereo not drawn)

# Further lines, the molecule ahead of its results:
row,Compound,RP-LC retention time [s]
1,CCOc1ccccc1CN1CCc2nc(N3CCN(c4ncccn4)CC3)ncc2C1,672
2,CCN1C(=O)c2cccnc2Sc2cc(CNC(=O)Cc3ccc(OC)cc3)ccc21,742
3,CCc1nc2cc(N3CCCC(C(=O)NCCOC)C3)cnc2nc1CC (stereo not drawn),662
4,Cc1ccc(NC(=O)N2CCC(CN3CCCC(C)C3)CC2)cc1C (stereo not drawn),645
5,CC(C)NC(=O)c1ccc(OCC2CCN(C(=O)c3ccsc3)CC2)cc1,797
6,Cc1ccc(C)c(-c2cc3c(=O)n(Cc4noc(-c5ccc6c(c5)OCO6)n4)ccn3n2)c1,1120
7,COc1cc(C)c(Cc2cnc(N)nc2N)cc1OC,623
8,CSc1ccc(C(=O)NC2CCCCC2NC(=O)CNC(=O)c2cc(C(F)(F)F)ccc2NC(=O)NC(C)C)cc1 (stereo not drawn),924
9,COC[C@@H]1CN(Cc2cccc(OC)n2)C[C@H]1c1ccncc1,536
10,Cc1cc(Cl)ccc1OCCCC(=O)NO,801
11,CC(C)NC(=O)c1ccc(OCC2CCN(C(=O)C(C)C)CC2)cc1,756
12,CCOC(=O)c1c(C)c(CCC(=O)NCCN2CCCCC2)c(C)n1C,573
13,CCOc1ccc2nc(C(=O)NC3CCCC3)cn2n1,822
14,Cc1ccccc1-n1c(Cn2cnc3c(N)ncnc32)nc2cccc(C)c2c1=O,719
15,COc1cccc(Nc2cc(C)nc3ccnn23)c1,610
16,Cc1cc(C)c(CNC(=O)C2CCCN(c3cnc4nccnc4c3)C2)c(C)c1 (stereo not drawn),819
17,Cc1ccc(C)c(N2CCN(c3ccnc(SCC(=O)NC4CCCC4)n3)CC2)c1,886
18,Cc1ccc(NCCCc2ccccc2)c(N)c1,728

row,Compound,RP-LC retention time [s]
1,CCN(CC)S(=O)(=O)c1ccc2nc(Cl)cnc2c1,950
2,Oc1ccccc1-n1c(-c2ccccc2)ccc1-c1ccccc1,1190
3,CCc1noc(-c2ccc(SCC(=O)N3CCCCCC3)nc2)n1,939
4,O=C(c1ccccn1)N1CCCCC1c1nncn1CC1CC1 (stereo not drawn),608
5,CCCS(=O)(=O)N1CC(n2cc(C(=O)NCC3CC3)nn2)C1,722
6,Brc1ccc(Nc2nc(-c3ccccc3)cs2)nc1,1210
7,COCC1CN(Cc2cn[nH]c2-c2ccc(OC)cc2)CCC1(F)F (stereo not drawn),624
8,CCN1CCCn2nc(C3CCN(C(=O)c4ccc5c(c4)OCO5)CC3)cc2C1=O,628
9,CCc1nnc(-c2ccc(S(=O)(=O)N3CCOCC3)o2)o1,714
10,CCN1CCN(C(=O)C2CCCN(S(=O)(=O)c3cc(-c4noc(C)n4)cs3)C2)CC1 (stereo not drawn),612
11,COc1ccc(OCc2nn3c(COc4ccc(F)cc4)nnc3s2)cc1,928
12,CCc1nc2cc(N3CCCC(C(=O)NCC4CC4)C3)cnc2nc1CC (stereo not drawn),762
13,Cc1cc(-c2nnc(NC(=O)c3ccn(C)n3)o2)c(C)o1,654
14,COc1ccccc1Cc1nc(-c2ccccc2)nn(C2OC(COC(C)=O)C(OC(C)=O)C(OC(C)=O)C2OC(C)=O)c1=S (stereo not drawn),1190
15,CCOc1ccc(S(=O)(=O)N2CCC(C(=O)N3CCN(C)CC3)CC2)cc1,569
16,O=S(=O)(Nc1ccncc1)c1cccc(C(F)(F)F)c1,591
17,COc1ccc(CC(=O)N2CCCC2COc2ccc(C(=O)N3CCCC3)cc2)cc1 (stereo not drawn),824
18,COC(=O)Nc1nc(CC(=O)NCc2ccco2)cs1,606

# Reference: the METLIN SMRT retention time set (Domingo-Almenara et al. 2019)
